From the supplement of paper PMC4314810 come the findings set out here.

± gives the standard deviation of the averaged measurements.

The subject of this series is MCF7. Description: HRG-induced Akt activation (dPAkt = log2 pAkt/Akt HRG-stimulated minus log2 pAkt/Akt basal) (log2 ratio difference); higher = stronger HRG-induced Akt(T308) phosphorylation. The following applies: miRNA mimic concentration 10 nM; time after transfection 72 h; heregulin 10 ng/ml; stimulation time 1 h. In short, it runs like this: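 MCF7 cells were plated […] in 96-well plates and transfected in two biological replicates with a library of 879 miRNA mimics (10 nM final) using Lipofectamine RNAiMax; 72 h later they were stimulated for 1 h with 10 ng/ml heregulin-beta1 or left unstimulated. After fixation in 4% PFA, phospho-Akt(T308) and total Akt were measured by In-Cell Western on an Odyssey, with signals corrected for column-wise fixation decay. Heregulin-induced Akt activation is the stimulated minus unstimulated value of the log ratio of phospho-Akt to total Akt, averaged over replicates. That log ratio is log2(pAkt/Akt).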
With UCACCAGCCCUGUGUUCCCUAG, the “HRG-induced Akt activation (log2)” value was found to be 1.69 ± 0.061.
Under UCACUCCUCUCCUCCCGUCUU stands 1.4 ± 0.36; under UCACUGUUCAGACAGGCGGA, 2.02 ± 0.07; under UCAGAACAAAUGCCGGUUCCCAGA, 1.23 ± 0.54.
UCAGCAAACAUUUAUUGUGUGC: the “HRG-induced Akt activation (log2)” value worked out at 1.819 ± 0.011.
UCAGCUGGCCCUCAUUUC: the “HRG-induced Akt activation (log2)” value turned out to be 1.12 ± 0.66.
Turning to UCAGGCCAGGCACAGUGGCUCA, the “HRG-induced Akt activation (log2)” value came out at 1.57 ± 0.41.
As for UCAGGCUCAGUCCCCUCCCGAU, the “HRG-induced Akt activation (log2)” value was found to be 1.36 ± 0.046.
The value for UCAGUAAAUGUUUAUUAGAUGA was 1.671 ± 0.0072; that for UCAGUGCACUACAGAACUUUGU was 0.519 ± 0.1; that for UCAGUGCAUCACAGAACUUUGU was 0.53 ± 0.045.
For the sequence UCAGUGCAUGACAGAACUUGG, the “HRG-induced Akt activation (log2)” value was found to be 1.09 ± 0.14.
Under UCAUAGCCCUGUACAAUGCUGCU stands 1.697 ± 0.0055; under UCAUAUUGCUUCUUUCU, 1.79 ± 0.17.
Take UCCAGCAUCAGUGAUUUUGUUG: the “HRG-induced Akt activation (log2)” value was determined as 1.77 ± 0.17.
On to UCCAGUACCACGUGUCAGGGCCA, for which the “HRG-induced Akt activation (log2)” value amounted to 0.976 ± 0.31.
In the case of UCCAGUGCCCUCCUCUCC, the “HRG-induced Akt activation (log2)” value was determined as 1.131 ± 0.0093.
For the sequence UCCAUUACACUACCCUGCCUCU, the “HRG-induced Akt activation (log2)” value is 1.37 ± 0.17.
In the case of UCCCACCGCUGCCACCC, the “HRG-induced Akt activation (log2)” value is 1.98 ± 0.17.
Turning to UCCCACGUUGUGGCCCAGCAG, the “HRG-induced Akt activation (log2)” value was 1.44 ± 0.14.
Consider UCCCCCAGGUGUGAUUCUGAUUU, for which the “HRG-induced Akt activation (log2)” value turned out to be 1.14 ± 0.29.
Under UCCCUGAGACCCUAACUUGUGA stands 1.35 ± 0.79; under UCCCUGAGACCCUUUAACCUGUGA, 1.77 ± 0.13.
Turning to UCCCUGUCCUCCAGGAGCUCACG, the “HRG-induced Akt activation (log2)” value came to 1.79 ± 0.13.
The value for UCCCUGUUCGGGCGCCA was 1.65 ± 0.52.
The value for UCCGAGCCUGGGUCUCCCUCUU was 1.37 ± 0.23; that for UCCGGUUCUCAGGGCUCCACC was 1.83 ± 0.26.
UCCGUCUCAGUUACUUUAUAGC: the “HRG-induced Akt activation (log2)” value amounted to 1.63 ± 0.18.
UCCUCUUCUCCCUCCUCCCAG: the “HRG-induced Akt activation (log2)” value came out at 1.77 ± 0.039.
For UCCUGCGCGUCCCAGAUGCCC, the “HRG-induced Akt activation (log2)” value was found to be 1.15 ± 0.34.
Under UCCUGUACUGAGCUGCCCCGAG stands 1.79 ± 0.1; under UCCUUCAUUCCACCGGAGUCUG, 1.66 ± 0.26.
The value for UCCUUCUGCUCCGUCCCCCAG was 1.47 ± 0.042; that for UCGACAGCACGACACUGCCUUC was 1.4 ± 0.42.
The value for UCGAGGAGCUCACAGUCUAGU was 1.71 ± 0.23.
With UCGCCUCCUCCUCUCCC, the “HRG-induced Akt activation (log2)” value came to 1.47 ± 0.17.
The value for UCGGAUCCGUCUGAGCUUGGCU was 1.88 ± 0.18.
Under UCGGCCUGACCACCCACCCCAC stands 0.936 ± 0.2; under UCGGGGAUCAUCAUGUCACGAGA, 1.93 ± 0.17.
As to UCGUACCGUGAGUAAUAAUGCG, the “HRG-induced Akt activation (log2)” value is 1.27 ± 0.031.
For the sequence UCGUGCAUCCCUUUAGAGUGUU, the “HRG-induced Akt activation (log2)” value was found to be 1.6 ± 0.022.
On to UCGUGGCCUGGUCUCCAUUAU, for which the “HRG-induced Akt activation (log2)” value worked out at 1.03 ± 0.11.
With UCGUGUCUUGUGUUGCAGCCGG, the “HRG-induced Akt activation (log2)” value amounted to 1.14 ± 0.13.
The value for UCGUUUGCCUUUUUCUGCUU was 1.46 ± 0.3; that for UCUACAAAGGAAAGCGCUUUCU was 1.02 ± 0.55.
The value for UCUACAGUGCACGUGUCUCCAG was 1.65 ± 0.062.
The value for UCUAGGCUGGUACUGCUGA was 1.57 ± 0.13; that for UCUAGUAAGAGUGGCAGUCGA was 1.322 ± 0.0056; that for UCUAUACAGACCCUGGCUUUUC was 1.14 ± 0.18.
Consider UCUCACACAGAAAUCGCACCCGU, for which the “HRG-induced Akt activation (log2)” value amounted to 1.92 ± 0.12.
The value for UCUCCCAACCCUUGUACCAGUG was 1.51 ± 0.26; that for UCUCGCUGGGGCCUCCA was 1.22 ± 0.36; that for UCUCUGGAGGGAAGCACUUUCUG was 1.33 ± 0.18.
For UCUCUGGGCCUGUGUCUUAGGC, the “HRG-induced Akt activation (log2)” value was determined as 1.55 ± 0.3.
In the case of UCUGCAGGGUUUGCUUUGAG, the “HRG-induced Akt activation (log2)” value came out at 1.07 ± 0.059.
Regarding UCUGCCCCCUCCGCUGCUGCCA, the “HRG-induced Akt activation (log2)” value amounted to 1.55 ± 0.069.
The value for UCUGCUCAUACCCCAUGGUUUCU was 1.15 ± 0.24.
The value for UCUGGCUCCGUGUCUUCACUCCC was 0.873 ± 0.15.
Consider UCUGGGCAACAAAGUGAGACCU, for which the “HRG-induced Akt activation (log2)” value stood at 0.753 ± 0.69.
Under UCUUCUCUGUUUUGGCCAUGUG stands 1.27 ± 0.041.
As to UCUUGGAGUAGGUCAUUGGGUGG, the “HRG-induced Akt activation (log2)” value is 1.56 ± 0.046.
The value for UCUUGUGUUCUCUAGAUCAGU was 1.53 ± 0.22; that for UCUUUGGUUAUCUAGCUGUAUGA was 1.96 ± 0.15.
Take UGAAACAUACACGGGAAACCUC: the “HRG-induced Akt activation (log2)” value came to 1.0374 ± 0.0008.
Under UGAAGGUCUACUGUGUGCCAGG stands 1.11 ± 0.052; under UGACAACUAUGGAUGAGCUCU, 1.53 ± 0.29; under UGACCGAUUUCUCCUGGUGUUC, 2.09 ± 0.076.
Consider UGAGAACCACGUCUGCUCUGAG, for which the “HRG-induced Akt activation (log2)” value amounted to 2.16 ± 0.27.
The value for UGAGAACUGAAUUCCAUAGGCU was 2.34 ± 0.1; that for UGAGAACUGAAUUCCAUGGGUU was 2.55 ± 0.058.
The value for UGAGACCUCUGGGUUCUGAGCU was 1.95 ± 0.023.
For UGAGAUGAAGCACUGUAGCUC, the “HRG-induced Akt activation (log2)” value turned out to be 1.18 ± 0.22.
Under UGAGCCCCUGUGCCGCCCCCAG stands 2.137 ± 0.01.
Under UGAGCCCUGUCCUCCCGCAG stands 2.24 ± 0.29; under UGAGCGCCUCGACGACAGAGCCG, 1.29 ± 0.043.
The value for UGAGCUAAAUGUGUGCUGGGA was 1.26 ± 0.69; that for UGAGCUGCUGUACCAAAAU was 2.107 ± 0.0035; that for UGAGGCAGUAGAUUGAAU was 1.49 ± 0.26.
As to UGAGGGGCAGAGAGCGAGACUUU, the “HRG-induced Akt activation (log2)” value was 1.83 ± 0.26.
The value for UGAGGUAGGAGGUUGUAUAGUU was 1.11 ± 0.083; that for UGAGGUAGUAAGUUGUAUUGUU was 1.6 ± 0.43.
Under UGAGGUAGUAGAUUGUAUAGUU stands 1.22 ± 0.24; under UGAGGUAGUAGGUUGUAUAGUU, 1.26 ± 0.07; under UGAGGUAGUAGGUUGUAUGGUU, 1.07 ± 0.07.
On to UGAGGUAGUAGGUUGUGUGGUU, for which the “HRG-induced Akt activation (log2)” value was 1.08 ± 0.14.
As to UGAGGUAGUAGUUUGUACAGUU, the “HRG-induced Akt activation (log2)” value is 1.47 ± 0.12.
Under UGAGGUAGUAGUUUGUGCUGUU stands 1.12 ± 0.026; under UGAGUACCGCCAUGUCUGUUGGG, 1.98 ± 0.09.
Under UGAGUAUUACAUGGCCAAUCUC stands 1.74 ± 0.27; under UGAGUGCCGGUGCCUGCCCUG, 1.43 ± 0.08.
Regarding UGAGUGUGUGUGUGUGAGUGUGU, the “HRG-induced Akt activation (log2)” value was found to be 2.295 ± 0.0047.
The value for UGAGUUGGCCAUCUGAGUGAG was 1.61 ± 0.27; that for UGAUAUGUUUGAUAUAUUAGGU was 1.52 ± 0.077; that for UGAUAUGUUUGAUAUUGGGUU was 1.75 ± 0.041.
Turning to UGAUUGGUACGUCUGUGGGUAG, the “HRG-induced Akt activation (log2)” value was found to be 2.35 ± 0.031.
Under UGAUUGUAGCCUUUUGGAGUAGA stands 1.96 ± 0.18.
Under UGAUUGUCCAAACGCAAUUCU stands 1.82 ± 0.3; under UGCAACGAACCUGAGCCACUGA, 1.49 ± 0.14.
For UGCAACUUACCUGAGUCAUUGA, the “HRG-induced Akt activation (log2)” value came to 1.61 ± 0.13.
In the case of UGCACCAUGGUUGUCUGAGCAUG, the “HRG-induced Akt activation (log2)” value is 1.29 ± 0.33.
For UGCAGGACCAAGAUGAGCCCU, the “HRG-induced Akt activation (log2)” value was determined as 1.41 ± 0.17.
Under UGCCCUAAAUGCCCCUUCUGGC stands 1.36 ± 0.27; under UGCCCUUAAAGGUGAACCCAGU, 1.22 ± 0.2.
On to UGCCUACUGAGCUGAAACACAG, for which the “HRG-induced Akt activation (log2)” value was determined as 1.549 ± 0.007.
As to UGCCUACUGAGCUGAUAUCAGU, the “HRG-induced Akt activation (log2)” value turned out to be 1.62 ± 0.029.
UGCCUGGGUCUCUGGCCUGCGCGU: the “HRG-induced Akt activation (log2)” value is 1.29 ± 0.18.
For the sequence UGCCUGUCUACACUUGCUGUGC, the “HRG-induced Akt activation (log2)” value stood at 1.34 ± 0.089.
The value for UGCGGGGCUAGGGCUAACAGCA was 2.49 ± 0.31; that for UGCUAUGCCAACAUAUUGCCAU was 1.72 ± 0.27; that for UGCUGGAUCAGUGGUUCGAGUC was 2.32 ± 0.36.
On to UGCUUCCUUUCAGAGGGU, for which the “HRG-induced Akt activation (log2)” value was determined as 1.61 ± 0.34.
For the sequence UGGAAGACUAGUGAUUUUGUUGU, the “HRG-induced Akt activation (log2)” value was 2.15 ± 0.38.
As for UGGAAUGUAAAGAAGUAUGUAU, the “HRG-induced Akt activation (log2)” value turned out to be 1.76 ± 0.27.
Under UGGAAUGUAAGGAAGUGUGUGG stands 2.05 ± 0.28; under UGGACGGAGAACUGAUAAGGGU, 1.48 ± 0.21; under UGGACUGCCCUGAUCUGGAGA, 1.55 ± 0.66.
In the case of UGGAGAGAAAGGCAGUUCCUGA, the “HRG-induced Akt activation (log2)” value was 0.965 ± 0.16.
In the case of UGGAGGAGAAGGAAGGUGAUG, the “HRG-induced Akt activation (log2)” value was determined as 1.81 ± 0.038.
